Common to all, as to assay type: physicochemical
The nature of series [1]: Iodide level after steam heat sterilisation, conventional heating regime. The note with it: 134° C. for 45 minutes, no reduced pH. The protocol:
During the development of new iodinated X-ray contrast agents, several heating regimes have been tested to find the parameters to be used for the secondary productions. Among these are end heat steam sterilization at 134° C. or 121° C. for 45 minutes or more, pre-heating in the mixing tank above the dissolution temperature (e.g. 110-111° C./330 mg I/ml) using different regimes followed by end heat steam sterilization etc. Although some of these heating regimes might be capable of providing a physically stable solution, they may cause high levels of free iodide due to degeneration of the iodinated X-ray contrast agent (Scheme 1). […] This is above the acceptable level.

The nature of series [2]: Solubility in water (comparison).
Series [3] is described as follows: Stability of Compound I at different pH: inorganic iodide and pH after autoclaving. The note with it: 320 mg I/ml, 121° C. 120 minutes or 134° C. 60 minutes. How it is done: Experiments were performed to investigate the level of inorganic iodide generated as a result of degeneration of Compound I as a result of a pH and heating regime. Reference is made to FIGS. 1 and 2. The heat load was controlled by using a BIER-vessel for the steam heat sterilisation. Formulated Compound I (drug product, DP, 320 mg I/ml) was added 25% HCl to obtain 4 series of 6 vials with a pH of 2.0, 3.1, 4.0 and 7.7, respectively.
DP (10 ml) was filled in 10 ml vials. 3 vials from each series were autoclaved at 121° C. for 120 minutes and the remaining 3 vials were autoclaved at 134° C. for 60 minutes. The samples, including 2 reference samples, were subjected to pH and iodide analyses.

Series [4] is described as follows: Saturation / dissolution temperature of contrast agent solution in water. From the text:
The injection solution of Compound I is highly supersaturated. The nucleation (precipitation) in the injection solution at storage conditions is strongly undesirable. The physical stability of the solution, i.e. prevention of the nucleation for a certain time at storage conditions, may be improved substantially by heat treatment of the solution well above its saturation temperature for a sufficiently long period of time. A solution in which the concentration of the solute (API) exceeds the equilibrium solute concentration at a given temperature is said to be supersaturated. […] Such solutions are denoted as supersaturated. Saturation temperature is the temperature where all solid API (amorphous and crystalline) apparently dissolves completely. As the solubility of Compound I decreases with decreasing temperature, the supersaturation increases.
For a compound or contrast agent with a defined crystalline state (single polymorph) at one side, and a solvent including dissolved admixtures on the other, the concentration of the agent in the solution in equilibrium with the crystalline state is called solubility. At this concentration the activity of the agent is equal in both phases. A system out of the equilibrium stage tends to change the solution concentration towards the equilibrium (solubility), e.g. dissolve crystals when under-saturated, or crystallize out compound when supersaturated. Normally, the solubility changes, usually increases, with temperature. For the purpose, we define the temperature at which the crystal solubility is equal to the concentration in the particular solution as “dissolution temperature”. When a solution contains crystals, the crystals dissolve at temperatures above the “dissolution temperature”, remaining a crystal free solution. When the amount of the crystals is small, the concentration increase by dissolution may be neglected.

The nature of series [5]: Inorganic iodide in X-ray composition prepared by the process of the invention (400 litre batch). As to conditions: 320 mg I/ml. How it is done: 261 kg of Compound I was dissolved in 250 litres of water for injection (WFI) and added 44 g Na2Ca-EDTA.2H2O in the mixing tank (A). HCl 5M was used to set the solution to pH 3. Under these conditions, to the composition underwent heating for 40 minutes at 122° C. […] This solution was cooled to approximately 50° C. and filtered through a 10 kDa ultrafilter. The remaining WFI to yield a solution of 320 mg I/ml of compound I was used to rinse the ultrafilter by dilution of the concentrated retentate. The filtered solution was dispensed and autoclaved for 20 minutes at 121° C. After autoclaving, the concentration of inorganic iodide was 10 μg/ml, which is approximately a fifth of the concentration resulting from a conventional production not using the process of the invention.

In the case of `O=CN(CC(O)CN(C=O)c1c(I)c(C(=O)NCC(O)CO)c(I)c(C(=O)NCC(O)CO)c1I)c1c(I)c(C(=O)NCC(O)CO)c(I)c(C(=O)NCC(O)CO)c1I` (centres unmarked) [Compound I, 5-[formyl-[3-[formyl-[3,5-bis(2,3-dihydroxypropylcarbamoyl)-2,4,6-triiodophenyl]amino]-2-hydroxypropyl]amino]-N,N′-bis(2,3-dihydroxypropyl)-2,4,6-triiodobenzene-1,3-dicarboxamide], the “iodide levels after steam heat sterilisation” value in series [1] is given as 75-85 μg I/ml. In series [2], the “solubility in water compared with iodixanol” value is listed as “lower solubility in water than iodixanol”. Besides, the “change in pH after autoclaving” value in series [3] (start pH in the range 2-4) was “no significant change in pH”; in series [3] (start pH of 7.7), “corresponding drop in pH”. The entries for the “iodide levels after autoclaving” value in series [3] (start pH in the range 2-4) and in series [3] (start pH of 7.7) were “only a minor increase in iodide levels” and “high iodide levels”, respectively. The dissolution temperature was 110-111 °C in series [4] (at 330 mg I/ml) and roughly 110 °C in series [4] (water for injection as solvent, concentration range 270-380 mg I/ml). The “inorganic iodide concentration relative to conventional production not using the process” value in series [5] (after autoclaving) is “approximately a fifth”. Further, the “concentration of inorganic iodide after autoclaving” value in series [5] (heated 40 minutes at 122° C. at pH 3, then pH 7.3, autoclaved 20 minutes at 121° C.) is 10000 ng/mL.

For `CC(=O)N(CC(O)CN(C(C)=O)c1c(I)c(C(=O)NCC(O)CO)c(I)c(C(=O)NCC(O)CO)c1I)c1c(I)c(C(=O)NCC(O)CO)c(I)c(C(=O)NCC(O)CO)c1I` (centres unmarked) [iodixanol, reference compound], the saturation temperature entry in series [4] (solution of about 320 mg I/ml in water) was “approximately 92 °C”.

For the origin of these results see patent US11185598B2, “Preparation of stabilised x-ray diagnostic composition” (GE HEALTHCARE AS, priority 2010, dated 2021).
